According to PMC6321230, “Metabolic Stability and Metabolite Characterization of Capilliposide B and Capilliposide C by LC–QTRAP–MS/MS” (Pharmaceutics, 2018):

Columns and labels:
[1] = system: HepG2 cells; parameters: method as in PMID 26678180; settings: cited from earlier work
[2] = parameters: method as in PMID 27859436; settings: mouse, after intravenous dosing of LC-B; cited from earlier work
[3] = mouse, microsomes
[4] = parameters: method as in PMID 27521984; settings: intravenous administration; cited from earlier work
[5] = system: ovarian carcinoma A-2780; parameters: method as in PMID 16595968, PMID 24554216; settings: cited from earlier work
[6] = system: prostate cancer PC3; parameters: method as in PMID 16595968, PMID 24554216; settings: cited from earlier work
[7] = system: DU145 cells; parameters: method as in PMID 16595968, PMID 24554216; settings: cited from earlier work
[8] = parameters: method as in PMID 24313264; settings: oral administration; cited from earlier work
[9] = Metabolic stability in mouse liver microsomes; settings: for in vitro t1/2 in mouse liver microsomes: MLM 0.5 mg/mL, NADPH, 37 °C, substrate 1.0 μM (midazolam 0.5 μM)
[10] = parameters: method as in PMID 26678180; settings: cited from earlier work
[11] = system: esophageal squamous carcinoma cells; parameters: method as in PMID 28463955; settings: cotreatment of LC-C and oxaliplatin; cited from earlier work
[12] = Metabolic stability in rat liver microsomes; settings: pH 7.4
[13] = Metabolic stability in human liver microsomes; settings: pH 7.4

Compound	cytotoxicity against HepG2 cells [1]	main site of tissue distribution [2]	degradation in MLM regardless of the presence of NADPH [3]	degradation in MLM with esterase inhibitor dichlorvos [3]	recovery in rat excreta [4]	cytotoxicity against A-2780 [5]	cytotoxicity against PC3 [6]	cytotoxicity against DU145 [7]	bioavailability [8]	exposure in tissues [8]	in vitro t1/2 in mouse liver microsomes [9] [min]	fraction metabolized in intestinal microflora [10] [%]	chemosensitizing effect of cotreatment with oxaliplatin [11]	half-life at 0.5 μM [12] [min]	half-life at 0.5 μM [13] [min]	half-life at 0.5 μM ([9]; mouse, microsomes, pH 7.4) [min]
CC1(C)C[C@@H]2[C@@]3([C@H](O)C[C@]4(C)[C@@]2(CC[C@@H]2[C@@]5(C)CC[C@H](O[C@@H]6OC[C@H](O[C@@H]7O[C@H](CO)[C@@H](O)[C@H](O)[C@H]7O[C@@H]7OC[C@@H](O)[C@H](O)[C@H]7O)[C@H](O)[C@H]6O[C@@H]6O[C@H](CO)[C@@H](O)[C@H](O)[C@H]6O)C(C)(C)[C@@H]5CC[C@]24C)O[C@@H]3O)[C@@H](O)C1 [LC-A, Capilliposide A]	significant cytotoxicity	mainly distributed in mouse liver														
CCCCCC(=O)O[C@H]1CC(C)(C)C[C@@H]2[C@@]13[C@H](O)C[C@]1(C)[C@@]2(CC[C@@H]2[C@@]4(C)CC[C@H](O[C@@H]5OC[C@H](O[C@@H]6O[C@H](CO)[C@@H](O)[C@H](O)[C@H]6O[C@@H]6OC[C@@H](O)[C@H](O)[C@H]6O)[C@H](O)[C@H]5O[C@@H]5O[C@H](CO)[C@@H](O)[C@H](O)[C@H]5O)C(C)(C)[C@@H]4CC[C@]21C)O[C@H]3O [LC-B, Capilliposide B]			obvious degradation	remarkably inhibited	less than 10%	significant cytotoxicities	significant cytotoxicities	significant cytotoxicities	poor bioavailability	low exposure in tissues	27.7					
CC1(C)C[C@H](O[C@@H]2O[C@H](CO)[C@@H](O)[C@H](O)[C@H]2O)[C@@]23[C@H](O)C[C@]4(C)[C@@](CC[C@@H]5[C@@]6(C)CC[C@H](O[C@@H]7OC[C@H](O[C@@H]8O[C@H](CO)[C@@H](O)[C@H](O)[C@H]8O[C@@H]8OC[C@@H](O)[C@H](O)[C@H]8O)[C@H](O)[C@H]7O[C@@H]7O[C@H](CO)[C@@H](O)[C@H](O)[C@H]7O)C(C)(C)[C@@H]6CC[C@]54C)(O[C@@H]2O)[C@@H]3C1 [LC-C, Capilliposide C]			obvious degradation	remarkably inhibited		significant cytotoxicities	significant cytotoxicities	significant cytotoxicities	poor bioavailability	low exposure in tissues	63.0	92.7	chemosenstizing effect			
Cc1ncc2n1-c1ccc(Cl)cc1C(c1ccccc1F)=NC2 [midazolam, Midazolam]														2.35	3.73	3.85
